Measurements: patent publication US4317914A, “Oxazolines” (Hoffmann-La Roche Inc., priority 1979, dated 1982)

What was measured:
plasma glucose [1] = test: Activity on plasma glucose after repeated oral administration, fasted rat (1); type: in vivo; conditions: for Plasma glucose 3 hours after the last of 5 oral medications: 5 × p.o., *p < 0.05, ***p < 0.001; for Plasma glucose 3 hours after the last medication: ***p < 0.001
Method: (§1) The preparations containing the test compound were administered to rats and mice as a suspension in 5% gun arabic (10 ml/kg) through a stomach probe. Dogs received the preparations orally in gelatin capsules. The blank values were ascertained from animals which received only the vehicle or a blank capsule. The medication was administered daily at 9:00 a.m. and 3:00 p.m.
(§2) The plasma glucose (Tables 1 and 3) was determined according to the hexokinase method. The plasma was obtained from heparinized blood after decapitating the rats (1) or by puncturing the vena saphena (2), or there was used a filtrate, made protein-free with perchloric acid, of blood removed from the tip of the tail (3), (4), (5). The glucose in the urine was determined directly. In the case of (1), (2) and (4), the feed was withdrawn with the first of five medications.

blood glucose [2] = test: Activity on blood glucose after repeated oral administration, obese-hyperglycemic mouse (4), feed withdrawn; type: in vivo; conditions: 294 mg/kg p.o., 5 administrations
Method: as §1, §2

blood glucose [3] = test: Activity on blood glucose after repeated oral administration, obese-hyperglycemic mouse (5), quantitatively controlled feed supply; type: in vivo; conditions: 11 administrations
Method: as §1, §2
(§3) In the case of (3), female rats received 70 mg/kg of streptozotocin subcutaneously 2 weeks before the test. In the case of (3) and (5), quantitatively controlled feed supply existed.

[4] = Toxicity, 10 day test in rats; conditions: rat, in vivo
plasma glucose [5] = test: Activity on plasma glucose after repeated oral administration, fasted dog (2); type: in vivo; conditions: 5 administrations
Method: as §1, §2

[6] = Toxicity, 10 day test in mice; conditions: mouse, in vivo
blood glucose [7] = test: Activity on blood glucose after repeated oral administration, diabetic rat (3), streptozotocin; type: in vivo; conditions: 132 mg/kg p.o., 7 administrations
Method: as §1, §2, §3

[8] = 88 mg/kg p.o., 5 administrations

Question: With `CCN(CC)c1ccc(C2OC(C)(C)N=C2c2ccccc2)cc1` (centres unmarked) [B, 5-[p-(diethylamino)-phenyl]-2,2-dimethyl-4-phenyl-3-oxazoline] as the compound, how does the “Plasma glucose 3 hours after the last of 5 oral medications” value (plasma glucose [1]; 300 μmol/kg) read?
Answer: 91 % of the blank values

Question: What about the “Plasma glucose 3 hours after the last of 5 oral medications” value (plasma glucose [1]; 1000 μmol/kg) of the same compound?
Answer: 77 % of the blank values

Question: For `CN(C)c1ccc(C2OC(C)(C)N=C2c2ccccc2)cc1` (centres unmarked) [A, 5-[p-(dimethylamino)phenyl]-2,2-dimethyl-4-phenyl-3-oxazoline], which “Blood glucose 0 hours after the last medication” value (shortened to “Blood glucose 0 hours”) (blood glucose [2]; 0 h, *p < 0.05) is on record?
Answer: 63 % of blank values

Question: And the “Blood glucose 1 hour after the last medication” value (“Blood glucose 1 hour” below) (blood glucose [2]; 1 h)?
Answer: 74 % of blank values

Question: And the “Blood glucose 3 hours after the last medication” value (“Blood glucose 3 hours” for short) (blood glucose [2]; 3 h)?
Answer: 71 % of blank values

Question: And the “Blood glucose 6 hours after the last medication” value (blood glucose [2]; 6 h, ***p < 0.001)?
Answer: 45 % of blank values

Question: What about the “Blood glucose 0 hours” value (blood glucose [3]; 44 mg/kg p.o.) of the same compound?
Answer: 83 % of blank values

Question: And the “Blood glucose 1 hour” value (blood glucose [3]; 44 mg/kg p.o.)?
Answer: 77 % of blank values

Question: What about the “Blood glucose 3 hours” value (blood glucose [3]; 44 mg/kg p.o.) of the same compound?
Answer: 84 % of blank values

Question: What about the “Blood glucose 0 hours” value (blood glucose [3]; 132 mg/kg p.o., **p < 0.01) of the same compound?
Answer: 66 % of blank values

Question: And the “Blood glucose 1 hour” value (blood glucose [3]; 132 mg/kg p.o., *p < 0.05)?
Answer: 61 % of blank values

Question: And the “Blood glucose 3 hours” value (blood glucose [3]; 132 mg/kg p.o., ***p < 0.001)?
Answer: 55 % of blank values

Question: And the LD50 at 240 h [4]?
Answer: 970 mg/kg

Question: And the “Plasma glucose 0 hours after the last medication” value (shortened to “Plasma glucose 0 hours”) (plasma glucose [5]; 29 mg/kg p.o., **p < 0.01)?
Answer: 82 % of blank values

Question: What about the “Plasma glucose 1 hour after the last medication” value (“Plasma glucose 1 hour” below) (plasma glucose [5]; 29 mg/kg p.o., *p < 0.05) of the same compound?
Answer: 75 % of blank values

Question: What about the “Plasma glucose 3 hours after the last medication” value (plasma glucose [5]; 29 mg/kg p.o., ***p < 0.001) of the same compound?
Answer: 77 % of blank values

Question: And the “Plasma glucose 6 hours after the last medication” value (plasma glucose [5]; 29 mg/kg p.o., **p < 0.01)?
Answer: 74 % of blank values

Question: What about the “Plasma glucose 24 hours after the last medication” value (plasma glucose [5]; 29 mg/kg p.o.) of the same compound?
Answer: 84 % of blank values

Question: What about the “Plasma glucose 0 hours” value (plasma glucose [5]; 88 mg/kg p.o., **p < 0.01) of the same compound?
Answer: 77 % of blank values

Question: What about the “Plasma glucose 1 hour” value (plasma glucose [5]; 88 mg/kg p.o.) of the same compound?
Answer: 75 % of blank values

Question: What about the “Plasma glucose 3 hours after the last medication” value (plasma glucose [5]; 88 mg/kg p.o., *p < 0.05) of the same compound?
Answer: 78 % of blank values

Question: What about the “Plasma glucose 6 hours after the last medication” value (plasma glucose [5]; 88 mg/kg p.o., *p < 0.05) of the same compound?
Answer: 76 % of blank values

Question: What about the “Plasma glucose 24 hours after the last medication” value (plasma glucose [5]; 88 mg/kg p.o., *p < 0.05) of the same compound?
Answer: 74 % of blank values

Question: And the “Plasma glucose 3 hours after the last of 5 oral medications” value (plasma glucose [1]; 300 μmol/kg)?
Answer: 78 % of the blank values

Question: What about the “Plasma glucose 3 hours after the last of 5 oral medications” value (plasma glucose [1]; 1000 μmol/kg) of the same compound?
Answer: 58 % of the blank values

Question: What about the “Plasma glucose 0 hours” value (plasma glucose [1]; 88 mg/kg p.o., 5 administrations, 0 h) of the same compound?
Answer: 76 % of blank values

Question: And the “Plasma glucose 1 hour” value (plasma glucose [1]; [8])?
Answer: 76 % of blank values

Question: And the “Plasma glucose 3 hours after the last medication” value (plasma glucose [1]; [8])?
Answer: 78 % of blank values

Question: And the “Plasma glucose 1 hour” value (plasma glucose [1]; 294 mg/kg p.o., 5 administrations, **p < 0.01)?
Answer: 57 % of blank values

Question: And the “Plasma glucose 3 hours after the last medication” value (plasma glucose [1]; 294 mg/kg p.o., 5 administrations)?
Answer: 58 % of blank values

Question: And the LD50 at 240 h [6]?
Answer: 220 mg/kg

Question: And the “Blood glucose 0 hours” value (blood glucose [7]; 0 h)?
Answer: 101 % of blank values

Question: What about the “Blood glucose 1 hour” value (blood glucose [7]; 1 h) of the same compound?
Answer: 101 % of blank values

Question: What about the “Blood glucose 3 hours” value (blood glucose [7]; 3 h) of the same compound?
Answer: 90 % of blank values

Question: What about the “Blood glucose 6 hours after the last medication” value (blood glucose [7]; 6 h, *p < 0.05) of the same compound?
Answer: 86 % of blank values

Question: With `CN(C=O)c1ccc(C2OC(C)(C)N=C2c2ccccc2)cc1` (centres unmarked) [C, 4'-(2,2-dimethyl-4-phenyl-3-oxazolin-5-yl)-N-methylformanilide] as the compound, how does the “Plasma glucose 3 hours after the last of 5 oral medications” value (plasma glucose [1]; 300 μmol/kg) read?
Answer: 87 % of the blank values

Question: What does the source list for `CNc1ccc(C2OC(C)(C)N=C2c2ccccc2)cc1` (centres unmarked) [D, 5-[p-(methylamino)phenyl]-2,2-dimethyl-4-phenyl-3-oxazoline]?
Answer: Plasma glucose 3 hours after the last of 5 oral medications (plasma glucose [1]; 300 μmol/kg): 86 % of the blank values; Plasma glucose 3 hours after the last of 5 oral medications (plasma glucose [1]; 1000 μmol/kg): 81 % of the blank values
